# Results taken from US8664257B2, “Oxygen-substituted 3-heteroaroylamino-propionic acid derivatives and their use as pharmaceuticals” (Sanofi, priority 2010, dated 2014).
# Target: T1, Recombinant human cathepsin A (Homo sapiens, UniProt P10619)
# T1 construct: Recombinant human cathepsin A (residues 29-480, with a C-terminal 10-His tag); 10-His (C); purchased R&D Systems 1049-SE
# T1 sequence (P10619 29-312 limits assumed): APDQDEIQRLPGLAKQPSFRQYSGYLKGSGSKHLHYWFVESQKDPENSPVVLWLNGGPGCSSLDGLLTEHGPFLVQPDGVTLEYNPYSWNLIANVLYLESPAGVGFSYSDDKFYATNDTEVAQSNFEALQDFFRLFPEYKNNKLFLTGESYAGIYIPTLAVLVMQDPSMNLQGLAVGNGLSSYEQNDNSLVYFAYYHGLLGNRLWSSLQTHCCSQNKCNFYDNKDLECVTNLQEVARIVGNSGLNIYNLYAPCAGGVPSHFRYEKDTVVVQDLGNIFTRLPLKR
# T1 sequence (P10619 327-480 limits assumed): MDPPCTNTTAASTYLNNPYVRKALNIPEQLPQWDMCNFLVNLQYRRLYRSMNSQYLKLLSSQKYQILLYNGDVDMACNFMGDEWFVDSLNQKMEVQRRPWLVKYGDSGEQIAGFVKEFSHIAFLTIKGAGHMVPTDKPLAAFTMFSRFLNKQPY
# Test: Cathepsin A inhibitory activity
# Assay type: biochemical
# Settings: pharmacological test "Cathepsin A inhibitory activity"; IC50 given as class A/B/C; read-out: Activity (2): Cathepsin A inhibitory activity, IC50 class
# In short: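 Read-out was microfluidic separation of cleaved vs. uncleaved Bodipy FL-bradykinin (2 μM), giving turnover, % inhibition and IC50. Compound and 833 ng/ml enzyme met for 15 min RT in pH 5.5 MES/DTT before substrate (15 min RT). The 29-480 His-tagged human enzyme was first activated by cathepsin L, then E-64 (10 μM).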
row,IC50,Compound
1,100 to 1000 nM,O=C(O)C[C@H](NC(=O)c1cc(O)n(-c2ccc(F)cc2F)n1)c1ccc(F)cc1 [Example 180]
2,1000 to 30000 nM,O=C(O)C[C@H](NC(=O)c1cc(O)n(-c2ccccc2)n1)c1cccc(F)c1 [Example 166]

# Further lines, the molecule ahead of its results:
row,Compound,IC50
1,O=C(O)CC(NC(=O)c1cc(O)n(-c2ccc(F)cc2F)n1)c1cccc2c1OCO2 (stereo not shown) [Example 174],100 to 1000 nM
2,COc1ccc(C(CC(=O)O)NC(=O)c2cc(O)n(-c3ccccc3Cl)n2)c(C)c1 (stereo not shown) [Example 203],100 to 1000 nM
3,O=C(O)CC(NC(=O)c1cc(O)n(-c2cccc(Cl)c2)n1)c1cccc2c1OCO2 (stereo not shown) [Example 249],100 to 1000 nM
4,Cc1cccc(C(CC(=O)O)NC(=O)c2cc(O)n(-c3cccc(Cl)c3)n2)c1C (stereo not shown) [Example 261],100 to 1000 nM

# Same assay, conditions: read-out: Activity (2): Cathepsin A inhibitory activity (IC50 class)
row,Compound,IC50
1,CCOc1cc(C(=O)NC(CC(=O)O)c2cccc(C)c2C)nn1-c1ccccc1Cl (stereo not shown) [Example 743],< 100 nM
2,"Cc1cccc([C@H](CC(=O)O)NC(=O)c2cc(OCC3CC3)n(-c3ccccc3F)n2)c1 [Example 690, (S)-3-{[5-Cyclopropylmethoxy-1-(2-fluoro-phenyl)-1H-pyrazole-3-carbonyl]-amino}-3-m-tolyl-propionic acid]",< 100 nM
3,"COc1ccc(-c2ccccc2)cc1C(CC(=O)O)NC(=O)c1cc(O)n(-c2ccccc2Cl)n1 (stereo not shown) [Example 562, 3-{[1-(2-Chloro-phenyl)-5-hydroxy-1H-pyrazole-3-carbonyl]-amino}-3-(4-methoxy-biphenyl-3-yl)-propionic acid]",1000 to 30000 nM
4,Cc1ccccc1[C@H](CC(=O)O)NC(=O)c1cc(OC(=O)N(C)c2ccccc2)n(-c2ccccc2F)n1 [Example 620],< 100 nM
5,COc1cc(C(=O)NC(CC(=O)O)c2ccc(F)cc2C)nn1-c1ccccc1F (stereo not shown) [Example 677],< 100 nM
6,COc1cc(C(=O)N[C@@H](CC(=O)O)c2ccccc2C)nn1-c1cc(F)ccc1F [Example 610],< 100 nM
7,CCOc1cc(C(=O)N[C@@H](CC(=O)O)c2ccc(C)cc2)nn1-c1ccccc1F [Example 716],< 100 nM
8,COc1cc(C(=O)N[C@@H](CC(=O)O)c2ccccc2C)nn1-c1ccccc1Cl [Example 608],100 to 1000 nM
9,O=C(O)CC(NC(=O)c1cc(OCC2CC2)n(-c2ccccc2F)n1)c1cc(Cl)ccc1Cl (stereo not shown) [Example 704],< 100 nM
10,CCOc1cc(C(=O)N[C@@H](CC(=O)O)c2ccc(Cl)cc2)nn1-c1ccccc1F [Example 713],< 100 nM
11,Cc1ccccc1[C@H](CC(=O)O)NC(=O)c1cc(O)n(C2CCCCC2)n1 [Example 573],< 100 nM
12,CCOc1cc(C(=O)N[C@@H](CC(=O)O)c2ccccc2OC)nn1-c1ccccc1F [Example 709],100 to 1000 nM
13,"COc1cc(-c2ccccc2)ccc1C(CC(=O)O)NC(=O)c1cc(O)n(-c2ccccc2)n1 (stereo not shown) [Example 545, 3-[(5-Hydroxy-1-phenyl-1H-pyrazole-3-carbonyl)-amino]-3-(3-methoxy-biphenyl-4-yl)-propionic acid]",1000 to 30000 nM
14,"COc1ccc(-c2ccccc2)cc1C(CC(=O)O)NC(=O)c1cc(O)n(-c2ccccc2F)n1 (stereo not shown) [Example 556, 3-{[1-(2-Fluoro-phenyl)-5-hydroxy-1H-pyrazole-3-carbonyl]-amino}-3-(4-methoxy-biphenyl-3-yl)-propionic acid]",1000 to 30000 nM
15,Cc1ccccc1[C@H](CC(=O)O)NC(=O)c1cc(OCC2CCOCC2)n(-c2ccccc2F)n1 [Example 627],< 100 nM
16,COc1cc(C(=O)N[C@@H](CC(=O)O)c2cccc(Cl)c2Cl)nn1-c1ccccc1 [Example 596],< 100 nM

# Same assay, conditions: read-out: Activity (2): Cathepsin A inhibitory activity, IC50 class
row,IC50,Compound
1,100 to 1000 nM,COc1ccc(C(CC(=O)O)NC(=O)c2cc(O)n(-c3ccc(F)cc3)n2)c(C)c1 (stereo not shown) [Example 337]
2,100 to 1000 nM,O=C(O)C[C@H](NC(=O)c1cc(O)n(-c2cccc(F)c2)n1)c1ccc(Cl)cc1Cl [Example 332]
3,1000 to 30000 nM,O=C(O)CC(NC(=O)c1cc(O)n(-c2ccc(F)cc2)n1)c1ccc(F)cc1F (stereo not shown) [Example 86]
4,1000 to 30000 nM,O=C(O)C[C@H](NC(=O)c1cc(O)n(-c2ccc(Cl)cc2)n1)c1ccccc1F [Example 293]
5,1000 to 30000 nM,O=C(O)C[C@H](NC(=O)c1cc(O)n(-c2ccc(Cl)cc2)n1)c1cccc(Cl)c1 [Example 280]
6,100 to 1000 nM,COc1ccc([C@H](CC(=O)O)NC(=O)c2cc(O)n(-c3ccc(F)cc3F)n2)cc1 [Example 382]
7,100 to 1000 nM,CCc1ccc(C(CC(=O)O)NC(=O)c2cc(O)n(-c3cccc(F)c3)n2)cc1 (stereo not shown) [Example 324]
8,100 to 1000 nM,N#Cc1ccc([C@H](CC(=O)O)NC(=O)c2cc(O)n(-c3ccc(F)cc3)n2)cc1 [Example 341]
9,100 to 1000 nM,Cc1cccc(C(CC(=O)O)NC(=O)c2cc(O)n(-c3ccccc3)n2)c1 (stereo not shown) [Example 65]
10,100 to 1000 nM,O=C(O)C[C@H](NC(=O)c1cc(O)n(-c2ccc(F)cc2)n1)c1cccc(F)c1 [Example 349]

# The remaining lines, values behind:
row,Compound,IC50
1,O=C(O)C[C@H](NC(=O)c1cc(O)n(-c2ccccc2F)n1)c1ccc(Cl)cc1Cl [Example 117],100 to 1000 nM
2,Cc1ccccc1[C@H](CC(=O)O)NC(=O)c1cc(O)n(-c2ccc(Cl)cn2)n1 [Example 130],1000 to 30000 nM
3,"CC(C)[C@](C)(O)COc1cc(C(=O)N[C@@H](CC(=O)O)c2ccc(F)cc2)nn1-c1ccccc1F [Example 872, (S)-3-(4-Fluoro-phenyl)-3-{[1-(2-fluoro-phenyl)-5-((S)-2-hydroxy-2,3-dimethyl-butoxy)-1H-pyrazole-3-carbonyl]-amino}-propionic acid]",100 to 1000 nM
4,O=C(O)CC(NC(=O)c1cc(O)n(-c2ccc(F)cc2F)n1)c1cccc(Oc2ccc(Cl)cc2)c1 (stereo not shown) [Example 386],100 to 1000 nM
5,Cc1ccccc1[C@@H](CC(=O)O)NC(=O)c1cc(O)n(-c2ccccc2)n1 [Example 83],1000 to 30000 nM
6,Cc1ccc(C)c(-n2nc(C(=O)NC(CC(=O)O)c3ccc(Cl)cc3)cc2O)c1 (stereo not shown) [Example 45],1000 to 30000 nM
7,O=C(O)CC(NC(=O)c1cc(O)n(-c2ccccc2Cl)n1)c1cccc(Cl)c1 (stereo not shown) [Example 391],100 to 1000 nM
8,CCCCC(CC(=O)O)NC(=O)c1cc(O)n(-c2cc(C)ccc2C)n1 (stereo not shown) [Example 33],1000 to 30000 nM
9,N#Cc1ccc([C@H](CC(=O)O)NC(=O)c2cc(O)n(-c3ccccc3Cl)n2)cc1 [Example 112],100 to 1000 nM
10,"Cc1ccc(C)c(-n2nc(C(=O)NC(CC(=O)O)c3cccc(OC(C)(C)C)c3)cc2O)c1 (stereo not shown) [Example 7, 3-(3-tert-Butoxy-phenyl)-3-{[1-(2,5-dimethyl-phenyl)-5-hydroxy-1H-pyrazole-3-carbonyl]-amino}-propionic acid]",1000 to 30000 nM
11,O=C(O)CC(NC(=O)c1cc(O)n(-c2ccccc2F)n1)c1ccc(Oc2ccccc2)cc1 (stereo not shown) [Example 124],100 to 1000 nM
12,Cc1ccc(C)c(-n2nc(C(=O)NC(CC(=O)O)C3CC3)cc2O)c1 (stereo not shown) [Example 36],1000 to 30000 nM

# Same assay, conditions: recombinant human cathepsin A 833 ng/ml, Bodipy FL-labeled bradykinin 2 μM, pH 5.5; read-out: CATH-A IC50
row,Compound,IC50
1,"O=C(O)CC(NC(=O)c1cc(O)n(-c2cccc(Cl)c2)n1)c1cc(F)ccc1Cl (stereo not shown) [Example 509, 3-(2-Chloro-5-fluoro-phenyl)-3-{[1-(3-chloro-phenyl)-5-hydroxy-1H-pyrazole-3-carbonyl]-amino}-propionic acid]",100 nM
2,"O=C(O)CC(NC(=O)c1cc(O)n(-c2ccc(Cl)cc2)n1)c1ccc(-c2ccccn2)cc1 (stereo not shown) [Example 515, 3-{[1-(4-Chloro-phenyl)-5-hydroxy-1H-pyrazole-3-carbonyl]-amino}-3-(4-pyridin-2-yl-phenyl)-propionic acid]",238 nM
3,"COc1ccc(-c2ccccc2)cc1C(CC(=O)O)NC(=O)c1cc(O)n(-c2ccccc2Cl)n1 (stereo not shown) [Example 562, 3-{[1-(2-Chloro-phenyl)-5-hydroxy-1H-pyrazole-3-carbonyl]-amino}-3-(4-methoxy-biphenyl-3-yl)-propionic acid]",4490 nM
4,"COc1cc(-c2ccccc2)ccc1C(CC(=O)O)NC(=O)c1cc(O)n(-c2ccccc2)n1 (stereo not shown) [Example 545, 3-[(5-Hydroxy-1-phenyl-1H-pyrazole-3-carbonyl)-amino]-3-(3-methoxy-biphenyl-4-yl)-propionic acid]",1110 nM
5,"COc1ccc(-c2ccccc2)cc1C(CC(=O)O)NC(=O)c1cc(O)n(-c2ccccc2F)n1 (stereo not shown) [Example 556, 3-{[1-(2-Fluoro-phenyl)-5-hydroxy-1H-pyrazole-3-carbonyl]-amino}-3-(4-methoxy-biphenyl-3-yl)-propionic acid]",8650 nM

# Same assay, conditions: recombinant human cathepsin A; read-out: Activity (2): Cathepsin A inhibitory activity, IC50 class
row,IC50,Compound
1,100 to 1000 nM,"O=C(O)CC(NC(=O)c1cc(O)n(-c2cccc(Cl)c2)n1)c1cc(F)ccc1Cl (stereo not shown) [Example 509, 3-(2-Chloro-5-fluoro-phenyl)-3-{[1-(3-chloro-phenyl)-5-hydroxy-1H-pyrazole-3-carbonyl]-amino}-propionic acid]"
2,100 to 1000 nM,Cc1ccc([C@H](CC(=O)O)NC(=O)c2cc(O)n(-c3ccccc3F)n2)cc1 [Example 480]
3,< 100 nM,Cc1ccc(F)cc1C(CC(=O)O)NC(=O)c1cc(O)n(-c2ccccc2F)n1 (stereo not shown) [Example 478]
4,100 to 1000 nM,O=C(O)C[C@H](NC(=O)c1cc(O)n(-c2cccc(F)c2)n1)c1cccc(Cl)c1 [Example 430]

# The remaining lines, values behind:
row,Compound,IC50
1,"O=C(O)CC(NC(=O)c1cc(O)n(-c2ccc(Cl)cc2)n1)c1ccc(-c2ccccn2)cc1 (stereo not shown) [Example 515, 3-{[1-(4-Chloro-phenyl)-5-hydroxy-1H-pyrazole-3-carbonyl]-amino}-3-(4-pyridin-2-yl-phenyl)-propionic acid]",100 to 1000 nM
2,"COc1cc(C(=O)N[C@@H](CC(=O)N[C@H](CO)C(C)C)c2ccccc2C)nn1-c1ccccc1F [Example 936, 1-(2-Fluoro-phenyl)-5-methoxy-1H-pyrazole-3-carboxylic acid [(S)-2-((S)-1-hydroxymethyl-2-methyl-propylcarbamoyl)-1-o-tolyl-ethyl]-amide]",< 100 nM
3,"COc1cc(C(=O)N[C@@H](CC(=O)NC2CCNC2=O)c2ccccc2C)nn1-c1ccccc1F (stereo partly drawn) [Example 931, 1-(2-Fluoro-phenyl)-5-methoxy-1H-pyrazole-3-carboxylic acid [(S)-2-(2-oxo-pyrrolidin-3-ylcarbamoyl)-1-o-tolyl-ethyl]-amide]",1000 to 30000 nM
4,"COc1cc(C(=O)N[C@@H](CC(=O)NCc2ccno2)c2ccccc2C)nn1-c1ccccc1F [Example 934, 1-(2-Fluoro-phenyl)-5-methoxy-1H-pyrazole-3-carboxylic acid {(S)-2-[(isoxazol-5-ylmethyl)-carbamoyl]-1-o-tolyl-ethyl}-amide]",< 100 nM
5,O=C(O)CC(NC(=O)c1cc(O)n(-c2ccccc2)n1)c1ccccc1Oc1ccccc1 (stereo not shown) [Example 442],1000 to 30000 nM
